Reference: article PMC12668304, “A Triple Threat Against Ovarian Cancer: Os(II)‐Pt(IV)‐Ceritinib Conjugates for Photodynamic Therapy, Chemotherapy, and Immunogenic Cell Death Induction” (Angewandte Chemie (International Ed. in English), 2025)

Tested on: calreticulin (CRT) exposure on MCA205 cells
Experiment: Externalisation of calreticulin (confocal microscopy, anti-CRT antibody)
Assay type: cell-based, mouse
Conditions: positive control, light condition not stated
Method: Surface exposure of CRT was measured via confocal fluorescence microscopy after staining with an anti‐CRT antibody (ab2907). […] The surface exposure in the dark might be due to the oxaliplatin, a bona fide ICD inducer. Specifically, CRT expression increased by 67% upon irradiation and 63% in the dark, compared with non‐treated cells.
Figure 8 Translocation and changes in calreticulin (CRT) exposure on MCA205 cells determined by confocal fluorescence microscopy after 4 h treatment under dark (−L) and light (+L) (740 nm, 1 h) conditions, and an additional 16 h of incubation. DAPI: Nuclear fluorescence dye. Scale bar: 20 µm.
The localisation of the different parts of the studied complexes was determined by measuring the Os and Pt content inside A2780 cells via ICP-MS. […] After this time, the cells were trypsinized and counted. […] In parallel, the content of Os and Pt was determined in a total cell extraction (2·10 6 cells). […] The Os and Pt content was determined using an ICP -MS apparatus and comparing the results with the Os and Pt calibration standards.
A2780 cells were seeded in a 12-well plate to obtain a 90 –100% confluency. […] The cells were monitored by imaging over the following time intervals: 0, 6, 24, 32, and 48 h. […]
Extracellular ATP released from treated MCA205 and A2780 cells was detected by the luminescent ATP assay kit (ab113849). […]

Work on `O=C1[O][Pt]2([NH][C@@H]3CCCC[C@H]3[NH]2)[O]C1=O` [Oxaliplatin] yielded a CRT increase of 21%.
